Read-outs that look alike come from different tables or passages of the source.
Columns and labels:
[1] = test system: BHK-21 cells; type: cell-based; settings: 4 μg
[2] = Stability of blank-LNP at 2-8° C. (particle size, PDI); type: physicochemical; settings: blank-LNP 48/40.5/10/1.5 mol %
Method: (§1) Lipid nanoparticles (LNPs) were formed or formulated by rapid mixing of an ethanol phase and an aqueous phase using a microfluidic device. The aqueous phase included a 50 mM citrate buffer (pH 5.5). The ethanol phase included an ionizable lipid (as described herein), cholesterol (Jiangsu Southeast Nanomaterials), 1,2-diastearoyl-sn-glycero-3-phosphocholine (DSPC) (Jiangsu Southeast Nanomaterials) and 1,2-dimyristoyl-rac-glycero-3-methoxypolyethylene glycol-2000 (DMG-PEG2000) (SINOPEG). A series of ionizable lipids were evaluated. These four lipid components were mixed at defined molar ratios in ethanol, for instance, at a molar ratio of 48:40.5:10:1.5 (ionizable lipid:cholesterol:DSPC:DMG-PEG2000). The generated LNP particles were purified in citrate buffer (containing sucrose) and characterized with respect to particle size, polydispersity index (PDI) and ionizable lipid concentration. The LNP solution was then diluted to the target concentration and stored at 2-8° C.
Each generated blank-LNP formulation was added to and mixed with lyophilized S2P RNA, altogether yielding a series of “ready-to-use” S2P RNA test items containing the different ionizable lipids. The pharmaceutical characteristics (Table 3) and in vitro transfection efficiency (Table 4) of these “ready-to-use” RNA test items were compared head-to-head. In parallel, the stability profiles of these […] blank-LNP formulations (i.e. without RNA complexation) were assessed at 2-8° C. (see Table 5).
The generated fourteen blank-LNP formulations were characterized in terms of particle size and PDI, both at the end of manufacturing (T=0) and 8-week storage at 2-8° C. […] (defined as size increase ≤20 nm in 8 weeks), namely DMG-PEG2000 between at least 1-4 mol %, DSPC between at least 5-20 mol %, ionizable lipid between at least 30-70 mol % and cholesterol between at least 18.5-58.5 mol %.

[3] = RNA encapsulation/complexation efficiency by Ribogreen assay; type: physicochemical; settings: for “Ready-to-use” S2P RNA formulation RNA complexation efficiency: 48/40.5/10/1.5 mol %, blank-LNP added to lyophilized S2P RNA (55 ug/vial), N/P 7
Method: (§2) In the case of a filled LNP, for example, an LNP-encapsulated S-2P RNA liquid drug product, the preparation protocol is essentially the same, except that it was an aqueous solution of S-2P RNA in citrate buffer pH 5-6 that constitutes the aqueous phase for LNP formation. The LNP-encapsulated RNA formulation is also referred to as “RNA-LNP” in this disclosure. Regarding characterization, particle size and polydispersity index (PDI) of the RNA-LNP were determined by Dynamic Light Scattering (DLS); RNA encapsulation efficiency and concentration were determined by means of Ribogreen® assay and RNA purity was determined by agarose gel electrophoresis.
(§3) The “ready-to-use” RNA product was manufactured by transferring a predetermined amount of already formed LNP in solution to a sealed vial containing the lyophilized RNA composition, followed by mixing at room temperature. The amount of LNP added per vial (e.g., 30-100 μg RNA per vial) was determined based on the molar ionizable lipid:RNA (N/P) molar ratio of 7. In this disclosure, “ready-to-use” S-2P RNA formulations (also referred to as “LNP(S-2P RNA)”) containing 30-100 μg/mL S-2P RNA were prepared, and then characterized with respect to particle size, polydispersity index, as well as RNA concentration, complexation efficiency, and purity using the same methods as described above in Example 3.

[4] = test system: Vero E6 cells; type: cell-based; settings: 4 μg
[5] = Particle size and polydispersity index (PDI) by Dynamic Light Scattering; type: physicochemical; settings: for “Ready-to-use” S2P RNA formulation PDI / “Ready-to-use” S2P RNA formulation Size: 48/40.5/10/1.5 mol %, blank-LNP added to lyophilized S2P RNA (55 ug/vial), N/P 7
Method: as §1, §2, §3

[6] = ionizable lipid/Chol/DSPC/DMG-PEG 20/57.0/20/3.0 mol %
[7] = ionizable lipid/Chol/DSPC/DMG-PEG 30/55.0/12/3.0 mol %
[8] = ionizable lipid/Chol/DSPC/DMG-PEG 40/48.5/10/1.5 mol %
[9] = ionizable lipid/Chol/DSPC/DMG-PEG 45/43.5/10/1.5 mol %
[10] = ionizable lipid/Chol/DSPC/DMG-PEG 50/38.5/10/1.5 mol %
[11] = ionizable lipid/Chol/DSPC/DMG-PEG 60/30.0/8.5/1.5 mol %
[12] = ionizable lipid/Chol/DSPC/DMG-PEG 70/22.5/6.0/1.5 mol %
[13] = ionizable lipid/Chol/DSPC/DMG-PEG 70/22.5/6/1.5 mol %
[14] = blank-LNP, 48/40.5/10/1.5 mol % ionizable lipid/cholesterol/DSPC/DMG-PEG
[15] = ready-to-use S2P RNA, 48 hours post transfection, 48/40.5/10/1.5 mol %
[16] = various LNP batches, different molar ratios of ionizable lipid:cholesterol:DSPC:DMG-PEG2000

CCCCCCCCCOC(=O)CCCCCCCOc1ccc(OCCCCCCCC(=O)OC(CCCCCCCC)CCCCCCCC)cc1COC(=O)CCCN(C)C
RBD expression in BHK-21 cells [1, 6]: 0.082 ng/mL | RBD expression in BHK-21 cells [1, 7]: 1.655 ng/mL | RBD expression in BHK-21 cells [1, 8]: 1.517 ng/mL | RBD expression in BHK-21 cells [1, 9]: 2.090 ng/mL | RBD expression in BHK-21 cells [1, 10]: 1.887 ng/mL | RBD expression in BHK-21 cells [1, 11]: 0.812 ng/mL | RBD expression in BHK-21 cells [1, 12]: <LOD | PDI, T = 1 month [2]: 0.09 | Size, T = 1 month [2]: 88 nm | Change in size (nm) vs. T0, T = 2 weeks [2]: −9 nm | PDI, T = 2 weeks [2]: 0.06 | Size, T = 2 weeks [2]: 79 nm | PDI, T = 0 [2]: 0.13 | Size, T = 0 [2]: 88 nm | “Ready-to-use” S2P RNA formulation RNA complexation efficiency [3]: 42% | “Ready-to-use” S2P RNA, RNA complex. efficiency [3, 6]: 54% | “Ready-to-use” S2P RNA, RNA complex. efficiency [3, 7]: 61% | “Ready-to-use” S2P RNA, RNA complex. efficiency [3, 8]: 51% | “Ready-to-use” S2P RNA, RNA complex. efficiency [3, 9]: 50% | “Ready-to-use” S2P RNA, RNA complex. efficiency [3, 10]: 48% | “Ready-to-use” S2P RNA, RNA complex. efficiency [3, 11]: 44% | “Ready-to-use” S2P RNA, RNA complex. efficiency [3, 13]: 40% | RBD expression in Vero E6 cells [4, 6]: <LOD | RBD expression in Vero E6 cells [4, 7]: 0.129 ng/mL | RBD expression in Vero E6 cells [4, 8]: 1.204 ng/mL | RBD expression in Vero E6 cells [4, 9]: 1.842 ng/mL | RBD expression in Vero E6 cells [4, 10]: 1.633 ng/mL | RBD expression in Vero E6 cells [4, 11]: 1.239 ng/mL | RBD expression in Vero E6 cells [4, 12]: 0.0939 ng/mL | “Ready-to-use” S2P RNA formulation PDI [5]: 0.12 | “Ready-to-use” S2P RNA formulation Size [5]: 173 nm | Blank-LNP PDI [5, 14]: 0.13 | Blank-LNP Size [5, 14]: 88 nm | Blank-LNP PDI [5, 6]: 0.18 | Blank-LNP Size [5, 6]: 82 nm | “Ready-to-use” S2P RNA PDI [5, 6]: 0.21 | “Ready-to-use” S2P RNA Size [5, 6]: 157 nm | Blank-LNP PDI [5, 7]: 0.2 | Blank-LNP Size [5, 7]: 75 nm | “Ready-to-use” S2P RNA PDI [5, 7]: 0.21 | “Ready-to-use” S2P RNA Size [5, 7]: 125 nm | Blank-LNP PDI [5, 8]: 0.12 | Blank-LNP Size [5, 8]: 90 nm | “Ready-to-use” S2P RNA PDI [5, 8]: 0.18 | “Ready-to-use” S2P RNA Size [5, 8]: 169 nm | Blank-LNP PDI [5, 9]: 0.04 | Blank-LNP Size [5, 9]: 87 nm | “Ready-to-use” S2P RNA PDI [5, 9]: 0.12 | “Ready-to-use” S2P RNA Size [5, 9]: 151 nm | Blank-LNP PDI [5, 10]: 0.11 | Blank-LNP Size [5, 10]: 83 nm | “Ready-to-use” S2P RNA PDI [5, 10]: 0.13 | “Ready-to-use” S2P RNA Size [5, 10]: 147 nm | Blank-LNP PDI [5, 11]: 0.15 | Blank-LNP Size [5, 11]: 76 nm | “Ready-to-use” S2P RNA PDI [5, 11]: 0.13 | “Ready-to-use” S2P RNA Size [5, 11]: 143 nm | Blank-LNP PDI [5, 13]: 0.21 | Blank-LNP Size [5, 13]: 77 nm | “Ready-to-use” S2P RNA PDI [5, 13]: 0.16 | “Ready-to-use” S2P RNA Size [5, 13]: 146 nm

CCCCCCCCCOC(=O)CCCCCCCOc1ccc(OCCCCCCCC(=O)OCCCCCCCCC)c(COC(=O)CCCN(C)C)c1 [Lipid #2]
RBD expression in BHK-21 cells [1, 15]: 1.34 ng/mL | Change in size (nm) vs. T0, T = 1 month [2]: unaltered size | PDI, T = 1 month [2]: 0.07 | Size, T = 1 month [2]: 121 nm | Change in size (nm) vs. T0, T = 1 month ([2]; listed as #2): +1 nm | Change in size (nm) vs. T0, T = 2 weeks [2]: +2 nm | PDI, T = 2 weeks [2]: 0.09 | Size, T = 2 weeks [2]: 122 nm | PDI, T = 0 [2]: 0.09 | Size, T = 0 [2]: 120 nm | RBD expression in Vero E6 cells [4, 15]: 0.97 ng/mL | “Ready-to-use” S2P RNA formulation PDI [5]: 0.21 | “Ready-to-use” S2P RNA formulation Size [5]: 211 nm | Blank-LNP PDI [5, 14]: 0.09 | Blank-LNP Size [5, 14]: 120 nm

CCCCCCCCCOC(=O)CCCCCCCOc1ccc(OCCCCCCCC(=O)OC(CCCCCCCC)CCCCCCCC)c(COC(=O)CCCN(C)C)c1 [Lipid #5]
PDI, T = 1 month [2]: 0.14 | Size, T = 1 month [2]: 93 nm | Change in size (nm) vs. T0, T = 2 weeks [2]: −1 nm | PDI, T = 2 weeks [2]: 0.13 | Size, T = 2 weeks [2]: 90 nm | PDI, T = 0 [2]: 0.20 | Size, T = 0 [2]: 91 nm | “Ready-to-use” S2P RNA formulation RNA complexation efficiency [3]: 44% | “Ready-to-use” S2P RNA formulation PDI [5]: 0.13 | “Ready-to-use” S2P RNA formulation Size [5]: 137 nm | Blank-LNP PDI [5, 14]: 0.2 | Blank-LNP Size [5, 14]: 91 nm | particle size [5, 16]: 80±15 nm | polydispersity index [5, 16]: 0.10±0.05
